In PubChem BioAssay (NCI):
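Five concentrations, 48 hours, 96-well plates. Definition used: TGI = concentration required for complete inhibition of growth.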

Key:
Assay in all cases: NCI anticancer screen, dose series, 48 h
[1] = tested on: KM12 colon
[2] = tested on: RXF-631 renal
[3] = tested on: K-562 leukemia
[4] = tested on: HCC-2998 colon
[5] = tested on: SK-MEL-2 melanoma
[6] = tested on: IGROV1 ovarian
[7] = tested on: HL-60(TB) leukemia
[8] = tested on: TK-10 renal
[9] = tested on: CCRF-CEM leukemia
[10] = tested on: SF-539 CNS
[11] = tested on: DLD-1 colon
[12] = tested on: SF-268 CNS
[13] = tested on: HOP-62 NSCLC
[14] = tested on: XF 498 CNS
[15] = tested on: SK-MEL-5 melanoma
[16] = tested on: HOP-92 NSCLC
[17] = tested on: NCI-H460 lung
[18] = tested on: NCI-H522 lung
[19] = tested on: OVCAR-4 ovarian
[20] = tested on: SN12C renal
[21] = tested on: 786-0 renal
[22] = tested on: OVCAR-5 ovarian
[23] = tested on: SW-620 colon
[24] = tested on: RPMI-8226 leukemia
[25] = tested on: M14 melanoma
[26] = tested on: UACC-62 melanoma
[27] = tested on: SNB-75 CNS
[28] = tested on: HCT-116 colon
[29] = tested on: HT29 colon
[30] = tested on: SK-MEL-28 melanoma
[31] = tested on: UO-31 renal
[32] = tested on: MALME-3M melanoma
[33] = tested on: EKVX NSCLC
[34] = tested on: COLO 205 colon
[35] = tested on: LOX IMVI melanoma
[36] = tested on: U251 CNS
[37] = tested on: OVCAR-8 ovarian
[38] = tested on: HOP-18 NSCLC
[39] = tested on: UACC-257 melanoma
[40] = tested on: A498 renal
[41] = tested on: CAKI-1 renal
[42] = tested on: NCI-H226 lung
[43] = tested on: LXFL 529 NSCLC
[44] = tested on: HCT-15 colon
[45] = tested on: DMS 114 small cell lung
[46] = tested on: SF-295 CNS
[47] = tested on: SK-OV-3 ovarian
[48] = tested on: ACHN renal
[49] = tested on: A549 NSCLC
[50] = tested on: MOLT-4 leukemia
[51] = tested on: SR leukemia
[52] = tested on: NCI-H23 lung
[53] = tested on: SNB-78 CNS
[54] = tested on: SNB-19 CNS
[55] = tested on: M19-MEL melanoma
[56] = tested on: OVCAR-3 ovarian
[57] = tested on: KM20L2 colon
[58] = tested on: DMS 273 small cell lung

Measured: TGI

CCOC(=O)/C(=C/c1ccc(C(F)(F)F)cc1)N(CC)CC
not listed: [54] | [55] | [56] | [57] | [58]
> 100 µM: all other assays above

C[C@]12CCC(=O)C[C@H]1CCC(O)[C@@H]2Br (some centres undefined)
not listed: [33] | [53]
> 100 µM: all other assays above
